Measurements as given in patent US9351974B2, “Substituted pteridinones for the treatment of cancer” (OSI Pharmaceuticals, LLC, priority 2011, dated 2016).

Molecular target: T1, His-tagged full-length RSK2 (RPS6KA3) (Homo sapiens, UniProt P51812)
T1 construct: His-tagged full-length RSK2 (RPS6KA3, Invitrogen PV3323); His; purchased Invitrogen PV3323
Assay: RSK2 Omnia Assay for compound IC50 determination
Assay type: biochemical
Conditions: ATP 15 μM, n=2, read-out: Mean RSK2 Biochem IC50
Method: RSK1 & RSK2 Omnia Assay Protocol for Compound IC50 Determination
The Omnia Assay (Invitrogen) has been optimized for His-tagged full length RSK1 (RPS6KA1, Millipore 14-509) and for His-tagged full-length RSK2 (RPS6KA3, Invitrogen PV3323). In this assay system, Omnia ST Peptide 6 (Invitrogen KNZ1061) functions as a substrate for RSK1 or RSK2. Phosphorylation of this SOX-containing peptide results in an increase in fluorescence at 485 nm upon excitation at 360 nm.
Assays are carried out in 384-well OptiPlates (Perkin Elmer 6007290) in a total volume of 20 μL containing RSK1 ([…]) or RSK2 ([…]), Omnia ST Peptide 6 (5 μM), ATP (15 μM, Km=16.3 μM), and test compound (variable) in RSK assay buffer (50 mM HEPES, pH 7.5, 10 mM MgCl2, 0.01% Tween-20, 1% glycerol, 1 mM DTT, 1 mM EGTA, 0.01% BSA) with 1% DMSO.
IC50s for test compounds are typically determined using an 11-point three-fold serial dilution with a final assay concentration ranging either from 170 μM to […] or from 17 μM to […]. All compound concentrations are assayed in duplicate. Initial compound dilutions are prepared at 100× concentration in 100% DMSO from a 10 mM stock solution. Compounds are further diluted 1:25 in assay buffer resulting in a 4× concentrated solution.
To run the assay 5 μL of the above 4× concentrated compound solution (or 4% DMSO for positive controls) is added to the assay plate followed by 5 μL of a solution containing peptide (20 μM) and ATP (60 μM) in assay buffer. The reaction is initiated by the addition of 10 μL of RSK1 ([…]) or RSK2 ([…]) in assay buffer, or assay buffer alone for negative controls. The increase in fluorescence due to peptide phosphorylation is monitored continuously as a function of time using a Spectramax M5 plate reader (Molecular Devices) equipped with SoftMax Pro software.
The slopes from the linear portion of progress curves are used to determine IC50 values by non-linear curve-fitting to a four-parameter equation using GraphPad Prism (GraphPad Software, Inc.) or XLFit (IDBS). IC50's are determined in duplicate (n=2) and Ki values are calculated from IC50 values using the Cheng-Prusoff equation assuming a competitive mode of inhibition.

T1 sequence (P51812 whole entry): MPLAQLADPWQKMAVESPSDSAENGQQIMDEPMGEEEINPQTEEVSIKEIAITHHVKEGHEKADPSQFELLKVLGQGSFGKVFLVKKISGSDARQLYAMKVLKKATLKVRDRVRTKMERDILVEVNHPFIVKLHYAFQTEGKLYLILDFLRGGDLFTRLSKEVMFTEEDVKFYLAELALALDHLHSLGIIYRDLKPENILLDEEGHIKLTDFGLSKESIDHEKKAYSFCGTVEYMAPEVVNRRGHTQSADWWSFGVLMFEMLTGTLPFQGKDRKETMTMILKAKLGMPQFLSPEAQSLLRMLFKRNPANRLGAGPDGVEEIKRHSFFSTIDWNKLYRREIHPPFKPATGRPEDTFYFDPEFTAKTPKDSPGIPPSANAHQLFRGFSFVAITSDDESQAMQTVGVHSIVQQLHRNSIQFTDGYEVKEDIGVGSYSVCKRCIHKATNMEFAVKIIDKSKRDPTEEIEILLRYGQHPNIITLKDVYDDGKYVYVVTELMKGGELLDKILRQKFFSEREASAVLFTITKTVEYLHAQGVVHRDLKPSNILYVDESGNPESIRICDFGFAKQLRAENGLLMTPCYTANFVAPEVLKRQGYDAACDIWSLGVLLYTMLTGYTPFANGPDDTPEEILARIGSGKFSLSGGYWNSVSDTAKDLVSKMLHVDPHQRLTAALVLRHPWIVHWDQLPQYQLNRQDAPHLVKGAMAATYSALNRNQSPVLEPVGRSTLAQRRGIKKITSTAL

Row | SMILES | IC50 [nM]
1 | C[C@@H]1C(=O)N(c2cccc(C(F)(F)F)c2)c2cnc(Nc3ccc4[nH]ncc4c3)nc2N1C1CCCCC1 [Example 36, (7R)-8-cyclohexyl-2-(1H-indazol-5-ylamino)-7-methyl-5-[3-(trifluoromethyl)phenyl]-7,8-dihydropteridin-6(5H)-one] | ≤ 100
2 | CC(C)CCN1c2nc(Nc3ccc(C(=O)O)cc3)ncc2N(c2ccccc2)C(=O)C1C (stereo not drawn) [Example 14, 4-{[7-methyl-8-(3-methylbutyl)-6-oxo-5-phenyl-5,6,7,8-tetrahydropteridin-2-yl]amino}benzoic acid] | ≤ 100
3 | COc1c(Nc2ncc3c(n2)N(C2CCCCC2)[C@H](C)C(=O)N3c2cccc(C#N)c2)ccc2[nH]ncc12 [compound 102, 3-[(7R)-8-cyclohexyl-2-[(4-methoxy-1H-indazol-5-yl)amino]-7-methyl-6-oxo-7,8-dihydropteridin-5(6H)-yl]benzonitrile] | 100 to 1000
4 | COC(=O)c1cc(N2C(=O)[C@@H](C)N(C3CCCCC3)c3nc(Nc4ccc5[nH]ncc5c4)ncc32)cs1 [compound 177, methyl 4-[(7R)-8-cyclohexyl-2-(1H-indazol-5-ylamino)-7-methyl-6-oxo-7,8-dihydropteridin-5(6H)-yl]thiophene-2-carboxylate] | ≤ 100
5 | C[C@@H]1C(=O)N(c2cccc(OC(F)(F)F)c2)c2cnc(Nc3ccc4[nH]ncc4c3)nc2N1C1CCCCC1 [Example 34, (7R)-8-cyclohexyl-2-(1H-indazol-5-ylamino)-7-methyl-5-[3-(trifluoromethoxy)phenyl]-7,8-dihydropteridin-6(5H)-one] | ≤ 100
6 | C[C@@H]1C(=O)N(c2cccc(C#N)c2)c2cnc(Nc3cnc4[nH]c(=O)oc4c3)nc2N1C1CCCCC1 [compound 172, 3-[(7R)-8-cyclohexyl-7-methyl-6-oxo-2-[(2-oxo-2,3-dihydro[1,3]oxazolo[4,5-b]pyridin-6-yl)amino]-7,8-dihydropteridin-5(6H)-yl]benzonitrile] | ≤ 100
7 | CC(C)CCN1c2nc(Nc3cccc(C(=O)O)c3)ncc2N(c2ccccc2)C(=O)C1C (stereo not drawn) [Example 15, 3-{[7-methyl-8-(3-methylbutyl)-6-oxo-5-phenyl-5,6,7,8-tetrahydropteridin-2-yl]amino}benzoic acid] | > 1000
8 | C[C@@H]1C(=O)N(c2ccc(N3CCN(C)CC3)c(C#N)c2)c2cnc(Nc3cc(F)c4[nH]ncc4c3)nc2N1C1CCCCC1 [compound 173, 5-[(7R)-8-cyclohexyl-2-[(7-fluoro-1H-indazol-5-yl)amino]-7-methyl-6-oxo-7,8-dihydropteridin-5(6H)-yl]-2-(4-methylpiperazin-1-yl)benzonitrile] | ≤ 100
9 | C[C@@H]1C(=O)N(c2cccnc2)c2cnc(Nc3cc(F)c4[nH]ncc4c3)nc2N1C1CCOCC1 [compound 191, (7R)-2-[(7-fluoro-1H-indazol-5-yl)amino]-7-methyl-5-(pyridin-3-yl)-8-(tetrahydro-2H-pyran-4-yl)-7,8-dihydropteridin-6(5H)-one] | ≤ 100
10 | C[C@@H]1C(=O)N(c2cccc(C#N)c2)c2cnc(Nc3cc(F)c(O)c(F)c3)nc2N1[C@H]1CC[C@H](C(F)(F)F)CC1 [compound 259, 3-[(7R)-2-[(3,5-difluoro-4-hydroxyphenyl)amino]-7-methyl-6-oxo-8-[trans-4-(trifluoromethyl)cyclohexyl]-7,8-dihydropteridin-5(6H)-yl]benzonitrile] | ≤ 100
11 | CC(C)CN1c2nc(Nc3ccc4[nH]ncc4c3)ncc2N(c2ccccc2)C(=O)[C@H]1C [Example 79, (7R)-2-(1H-indazol-5-ylamino)-7-methyl-8-(2-methylpropyl)-5-phenyl-7,8-dihydropteridin-6(5H)-one] | ≤ 100
12 | N#Cc1cccc(N2C(=O)[C@@H](CO)N(C3CCCC3)c3nc(Nc4ccc5[nH]ncc5c4)ncc32)c1 [Example 220, 3-[(7R)-8-cyclopentyl-7-(hydroxymethyl)-2-(1H-indazol-5-ylamino)-6-oxo-7,8-dihydropteridin-5(6H)-yl]benzonitrile] | ≤ 100
13 | CC(C)Oc1ccc(N2C(=O)[C@@H](C)N(C3CCOCC3)c3nc(Nc4cnc5[nH]ncc5c4)ncc32)cc1C#N [compound 202, 5-[(7R)-7-methyl-6-oxo-2-(1H-pyrazolo[3,4-b]pyridin-5-ylamino)-8-(tetrahydro-2H-pyran-4-yl)-7,8-dihydropteridin-5(6H)-yl]-2-(propan-2-yloxy)benzonitrile] | ≤ 100
14 | C[C@@H]1C(=O)N(c2cccc(C#N)c2)c2cnc(Nc3ccc4c(=O)[nH]oc4c3)nc2N1C1CCCCC1 [compound 166, 3-[(7R)-8-cyclohexyl-7-methyl-6-oxo-2-[(3-oxo-2,3-dihydro-1,2-benzoxazol-6-yl)amino]-7,8-dihydropteridin-5(6H)-yl]benzonitrile] | ≤ 100
15 | COc1ccc(N2c3nc(Nc4cc(F)c5[nH]ncc5c4)ncc3N(c3cccc(C#N)c3)C(=O)[C@H]2C)cc1 [compound 182, 3-[(7R)-2-[(7-fluoro-1H-indazol-5-yl)amino]-8-(4-methoxyphenyl)-7-methyl-6-oxo-7,8-dihydropteridin-5(6H)-yl]benzonitrile] | ≤ 100
16 | CC(C)Oc1ccc(N2C(=O)[C@@H](C)N(C3CCOCC3)c3nc(Nc4cc(F)c5[nH]c(=O)oc5c4)ncc32)cc1C#N [compound 205, 5-[(7R)-2-[(4-fluoro-2-oxo-2,3-dihydro-1,3-benzoxazol-6-yl)amino]-7-methyl-6-oxo-8-(tetrahydro-2H-pyran-4-yl)-7,8-dihydropteridin-5(6H)-yl]-2-(propan-2-yloxy)benzonitrile] | ≤ 100
17 | C[C@@H]1C(=O)N(c2cccc(C#N)c2)c2cnc(Nc3cnc4[nH]ncc4c3)nc2N1C1CCC(F)(F)CC1 [compound 270, 3-[(7R)-8-(4,4-difluorocyclohexyl)-7-methyl-6-oxo-2-(1H-pyrazolo[3,4-b]pyridin-5-ylamino)-7,8-dihydropteridin-5(6H)-yl]benzonitrile] | ≤ 100
18 | C[C@@H]1C(=O)N(c2ccc3cccnc3c2)c2cnc(Nc3cc(F)c4[nH]ncc4c3)nc2N1C1CCCCC1 [compound 133, (7R)-8-cyclohexyl-2-[(7-fluoro-1H-indazol-5-yl)amino]-7-methyl-5-(quinolin-7-yl)-7,8-dihydropteridin-6(5H)-one] | ≤ 100
19 | CC(C)Oc1ccc(N2C(=O)[C@@H](C)N(C3CCC(F)(F)CC3)c3nc(Nc4ccc5[nH]c(=O)oc5c4)ncc32)cc1C#N [compound 285, 5-[(7R)-8-(4,4-difluorocyclohexyl)-7-methyl-6-oxo-2-[(2-oxo-2,3-dihydro-1,3-benzoxazol-6-yl)amino]-7,8-dihydropteridin-5(6H)-yl]-2-(propan-2-yloxy)benzonitrile] | ≤ 100
20 | Cc1n[nH]c2ccc(Nc3ncc4c(n3)N(C3CCCCC3)[C@H](C)C(=O)N4c3cccc(C#N)c3)cc12 [compound 103, 3-[(7R)-8-cyclohexyl-7-methyl-2-[(3-methyl-1H-indazol-5-yl)amino]-6-oxo-7,8-dihydropteridin-5(6H)-yl]benzonitrile] | 100 to 1000
21 | C[C@@H]1C(=O)N(c2cccc(C#N)c2)c2cnc(Nc3ccc4[nH]ncc4c3)nc2N1C1CCCC1 [Example 69, 3-[(7R)-8-cyclopentyl-2-(1H-indazol-5-ylamino)-7-methyl-6-oxo-7,8-dihydropteridin-5(6H)-yl]benzonitrile] | ≤ 100
22 | C[C@@H]1C(=O)N(c2cccc(C#N)c2)c2cnc(Nc3ccc(C(N)=O)c(F)c3)nc2N1C1CCC(F)(F)CC1 [compound 272, 4-{[(7R)-5-(3-cyanophenyl)-8-(4,4-difluorocyclohexyl)-7-methyl-6-oxo-5,6,7,8-tetrahydropteridin-2-yl]amino}-2-fluorobenzamide] | ≤ 100
23 | C[C@@H]1C(=O)N(c2cccc(C#N)c2)c2cnc(Nc3ccc4[nH]ncc4c3)nc2N1C1CCC(F)(F)CC1 [compound 261, 3-[(7R)-8-(4,4-difluorocyclohexyl)-2-(1H-indazol-5-ylamino)-7-methyl-6-oxo-7,8-dihydropteridin-5(6H)-yl]benzonitrile] | ≤ 100
24 | CCOc1ccc(N2C(=O)[C@@H](C)N(C3CCOCC3)c3nc(Nc4cc(F)c5[nH]c(=O)oc5c4)ncc32)cc1C#N [compound 204, 2-Ethoxy-5-[(7R)-2-[(4-fluoro-2-oxo-2,3-dihydro-1,3-benzoxazol-6-yl)amino]-7-methyl-6-oxo-8-(tetrahydro-2H-pyran-4-yl)-7,8-dihydropteridin-5(6H)-yl]benzonitrile] | ≤ 100
